Measurements reported in patent US20250051277A1, “DELIVERY OF THERAPEUTIC ALKALOID COMPOUNDS” (Sensorium Therapeutics, Inc., priority 2021, published 2025).
Read-outs that look alike come from different tables or passages of the source.

Assays:
[1] = Hydrolysis Assay of Example A1 (conversion by LCMS); assay type: physicochemical; conditions: for Conversion (%) / Notes (hydrolysis): 0.5 mM, 0.01M HCl
Method: The hydrolysis kinetics was under a certain temperature and measured by LCMS at a certain time interval. The corresponding LCMS chromatograms were recorded and the conversions were calculated. The hydrolysis conditions and the data were summarized in below table. LCMS spectra were obtained using Agilent 1200/G1956A or SHIMADZU LCMS-2020. Standard LCMS conditions were as follows (running time 1.55 minutes): • Acidic condition: Mobile Phase A: 0.0375% TFA in water (v/v). Mobile Phase B: 0.01875% TFA in acetonitrile (v/v); Column: Kinetex EVO C18 30*2.1 mm, 5 μm. • Basic condition: Mobile Phase A: 0.025% NH3·H2O in water (v/v). Mobile Phase B: Acetonitrile; Column: Kinetex EVO C18 2.1×30 mm, 5 μm. • Conversion (%)=peak area 1/(peak area 1+peak area 2)*100%, peak area 1 is the integration of hydrolyzed product, peak area 2 is the integration of starting material.

[2] = assay type: physicochemical; conditions: SGF with pepsin, pH 1.5, 37° C., 0.5 mM
[3] = Plasma Stability Assay of Example A3, mouse plasma; conditions: 5 μM, 37° C., % of prodrug compound remaining
[4] = Plasma Stability Assay of Example A3, human plasma; conditions: 5 μM, 37° C., % of prodrug compound remaining
[5] = assay type: physicochemical; conditions: DI water, 25° C., 0.5 mM
[6] = 5 μM
[7] = 10 μM
Method: (§1) 50 μL aliquots of positive controls and test compounds spiked into rat or human plasma (n=2) were added to a pre-warmed plate (37° C.) and shaken at 50 rpm. At each respective time point, the reaction was stopped by adding 500 μL of acetonitrile containing internal standards (100 nM aprozolam, 200 nM caffeine, 100 nM tolbutamide). All samples were vortexed for 10 minutes, followed by centrifugation at 3,220 g for 30 minutes to precipitate proteins. 100 μL of the supernatant is transferred to a new plate. The supernatant will be diluted with ultrapure water according to the LC-MS signal response and peak shape.

[8] = 10 μM; remark: listed apart in the source
Method: as §1

[9] = 5 μM; remark: listed apart in the source

SMILES: COc1ccc([C@]23CCN(C)[C@H]2CC2(CC3)OCCO2)cc1OC (racemic) [Compound 013, 3′a-(3,4-dimethoxyphenyl)-1′-methyl-spiro[1,3-dioxolane-2,6′-2,3,4,5,7,7a-hexahydroindole]]
- conversion to mesembrine in the Hydrolysis Assay ([1]; acidic pH 2.0, 5° C. as printed): not at 5 °C
- conversion to mesembrine in the Hydrolysis Assay ([1]; acidic pH 2.0, temperatures of 37 and 50° C.): converted to mesembrine
- Conversion (%) ([1]; pH = 2.0, 25° C., 0-24 h): 0%
- Notes (hydrolysis) ([1]; pH = 2.0, 25° C., 0-24 h): Stable
- Conversion (%) ([1]; pH = 2.0, 37° C., 16 h): 17%
- Conversion (%) ([1]; pH = 2.0, 37° C., 24 h): 22%
- Conversion (%) ([1]; pH = 2.0, 37° C., 42 h): 35%
- Conversion (%) ([1]; pH = 2.0, 37° C., 56 h): 50%
- Conversion (%) ([1]; pH = 2.0, 37° C., 7 d): 77%
- Conversion (%) ([1]; pH = 2.0, 50° C., 10 min): 1%
- Conversion (%) ([1]; pH = 2.0, 50° C., 40 min): 2%
- Conversion (%) ([1]; pH = 2.0, 50° C., 120 min): 19%
- Conversion (%) ([1]; pH = 2.0, 50° C., 22 h): 90%

SMILES: COc1ccc([C@@]23CCC(=NO)C[C@@H]2N(C)CC3)cc1OC (mixture of isomers) [Compound 037]
- conversion to mesembrine in the Hydrolysis Assay ([1]; acidic pH 2.0, temperatures of 25 or 37° C.): converted to mesembrine
- Conversion (%) ([1]; pH = 2.0, 37° C., 10 min): 59%
- Conversion (%) ([1]; pH = 2.0, 37° C., 60 min): 84%
- Conversion (%) ([1]; pH = 2.0, 37° C., 90 min): 87%
- Condition 1 Conversion (%) ([2]; time 1 min): 0%
- Condition 1 Conversion (%) ([2]; time 5 min): 0%
- Condition 1 Conversion (%) ([2]; time 30 min): 82.3%
- Condition 1 Conversion (%) ([2]; time 1 h): 89%
- Condition 1 Conversion (%) ([2]; time 4 h): 89.2%
- Condition 1 Conversion (%) ([2]; time 24 h): 89.5%

SMILES: COc1ccc([C@@]23CCC(OC(=O)c4ccc(N(C)C)cc4)=C[C@@H]2N(C)CC3)cc1OC [Compound 355, [(3aS,7aS)-3a-(3,4-dimethoxyphenyl)-1-methyl-3,4,5,7a-tetrahydro-2H-indol-6-yl]4-(dimethylamino)benzoate]
- Mouse Plasma Prodrug (%) ([3]; 0 min): 100.0%
- Mouse Plasma Prodrug (%) ([3]; 15 min): 50.6%
- Mouse Plasma Prodrug (%) ([3]; 30 min): 30.8%
- Mouse Plasma Prodrug (%) ([3]; 60 min): 9.9%
- Mouse Plasma Prodrug (%) ([3]; 120 min): 0.5%
- Mouse Plasma Prodrug (%) ([3]; 240 min): 0.0%
- Human Plasma Prodrug (%) ([4]; 0 min): 100.0%
- Human Plasma Prodrug (%) ([4]; 15 min): >99%
- Human Plasma Prodrug (%) ([4]; 30 min): >99%
- Human Plasma Prodrug (%) ([4]; 60 min): >99%
- Human Plasma Prodrug (%) ([4]; 120 min): >99%
- Human Plasma Prodrug (%) ([4]; 240 min): 93.2%
- Condition 2 Conversion (%) ([5]; time 1 min): 0%
- Condition 2 Conversion (%) ([5]; time 5 min): 0%
- Condition 2 Conversion (%) ([5]; time 30 min): 0%
- Condition 2 Conversion (%) ([5]; time 1 h): 0%
- Condition 2 Conversion (%) ([5]; time 4 h): 0%
- Condition 2 Conversion (%) ([5]; time 24 h): 0%
- Condition 1 Conversion (%) ([2]; time 1 min): 0%
- Condition 1 Conversion (%) ([2]; time 5 min): 0%
- Condition 1 Conversion (%) ([2]; time 30 min): 0%
- Condition 1 Conversion (%) ([2]; time 1 h): 0%
- Condition 1 Conversion (%) ([2]; time 4 h): 0%
- Condition 1 Conversion (%) ([2]; time 24 h): 0%
- Human Plasma Compound 001 (%) ([6]; 0 min): 0.0%

SMILES: COc1ccc([C@@]23CCC(OC(=O)c4cccc(C)c4C)=C[C@@H]2N(C)CC3)cc1OC [Compound 373, (3aS,7aS)-3a-(3,4-dimethoxyphenyl)-1-methyl-2,3,3a,4,5,7a-hexahydro-1H-indol-6-yl2,3-dimethylbenzoate]
- Mouse Plasma Prodrug (%) ([3]; 0 min): 100%
- Mouse Plasma Prodrug (%) ([3]; 15 min): 82%
- Mouse Plasma Prodrug (%) ([3]; 30 min): 64%
- Mouse Plasma Prodrug (%) ([3]; 60 min): 41%
- Mouse Plasma Prodrug (%) ([3]; 120 min): 12%
- Mouse Plasma Prodrug (%) ([3]; 240 min): 1%
- Human Plasma Prodrug (%) ([4]; 0 min): 100%
- Human Plasma Prodrug (%) ([4]; 15 min): 93.9%
- Human Plasma Prodrug (%) ([4]; 30 min): 96.5%
- Human Plasma Prodrug (%) ([4]; 60 min): 81.4%
- Human Plasma Prodrug (%) ([4]; 120 min): 66.1%
- Human Plasma Prodrug (%) ([4]; 240 min): 17.2%
- Human Plasma Compound 001 (%) ([6]; 0 min): 0%
- Prodrug (%) remaining, Human Plasma ([7]; 0 h): 100.0%
- Prodrug (%) remaining, Human Plasma ([7]; 10 min): 96.3%
- Prodrug (%) remaining, Human Plasma ([7]; 0.5 h): >99%
- Prodrug (%) remaining, Human Plasma ([7]; 1 h): 94.8%
- Prodrug (%) remaining, Human Plasma ([7]; 2 h): 89.9%
- Prodrug (%) remaining, Human Plasma ([7]; 4 h): 96.3%
- Prodrug (%) remaining, Rat Plasma ([8]; 0 h): 100.0%
- Prodrug (%) remaining, Rat Plasma ([8]; 10 min): 81.0%
- Prodrug (%) remaining, Rat Plasma ([8]; 0.5 h): 58.4%
- Prodrug (%) remaining, Rat Plasma ([8]; 1 h): 26.8%
- Prodrug (%) remaining, Rat Plasma ([8]; 2 h): 5.2%
- Prodrug (%) remaining, Rat Plasma ([8]; 4 h): 1.3%

SMILES: COc1ccc([C@@]23CCC(OC(=O)c4cccc(C)c4)=C[C@@H]2N(C)CC3)cc1OC [Compound 374, (3aS,7aS)-3a-(3,4-dimethoxyphenyl)-1-methyl-2,3,3a,4,5,7a-hexahydro-1H-indol-6-yl3-methylbenzoate]
- Mouse Plasma Prodrug (%) ([3]; 0 min): 100%
- Mouse Plasma Prodrug (%) ([3]; 15 min): 33%
- Mouse Plasma Prodrug (%) ([3]; 30 min): 4%
- Mouse Plasma Prodrug (%) ([3]; 60 min): 0%
- Mouse Plasma Prodrug (%) ([3]; 120 min): 0%
- Mouse Plasma Prodrug (%) ([3]; 240 min): 0%
- Human Plasma Prodrug (%) ([4]; 0 min): 100%
- Human Plasma Prodrug (%) ([4]; 15 min): 98%
- Human Plasma Prodrug (%) ([4]; 30 min): 88%
- Human Plasma Prodrug (%) ([4]; 60 min): 84%
- Human Plasma Prodrug (%) ([4]; 120 min): 62%
- Human Plasma Prodrug (%) ([4]; 240 min): 11%
- Human Plasma Compound 001 (%) ([6]; 0 min): 0.00%
- Human Plasma Compound 001 (%) ([6]; 30 min): 3.19%
- Human Plasma Compound 001 (%) ([6]; 60 min): 5.92%
- Human Plasma Compound 001 (%) ([6]; 120 min): 9.01%
- Human Plasma Compound 001 (%) ([6]; 240 min): 7.54%
- Prodrug (%) remaining, Human Plasma ([7]; 0 h): 100.0%
- Prodrug (%) remaining, Human Plasma ([7]; 10 min): >99%
- Prodrug (%) remaining, Human Plasma ([7]; 0.5 h): >99%
- Prodrug (%) remaining, Human Plasma ([7]; 1 h): >99%
- Prodrug (%) remaining, Human Plasma ([7]; 2 h): >99%
- Prodrug (%) remaining, Human Plasma ([7]; 4 h): 95.4%
- Prodrug (%) remaining, Rat Plasma ([8]; 0 h): 100.0%
- Prodrug (%) remaining, Rat Plasma ([8]; 10 min): 9.7%
- Prodrug (%) remaining, Rat Plasma ([8]; 0.5 h): 0.3%
- Prodrug (%) remaining, Rat Plasma ([8]; 1 h): 0.1%
- Prodrug (%) remaining, Rat Plasma ([8]; 2 h): 0.0%
- Prodrug (%) remaining, Rat Plasma ([8]; 4 h): 0.0%

SMILES: COc1ccc([C@@]23CCC(OC(=O)c4ccccc4C)=C[C@@H]2N(C)CC3)cc1OC [Compound 298, [(3aS,7aS)-3a-(3,4-dimethoxyphenyl)-1-methyl-3,4,5,7a-tetrahydro-2H-indol-6-yl]2-methylbenzoate]
- Mouse Plasma Compound 001 (%) ([9]; 15 min): 34.0%
- Mouse Plasma Compound 001 (%) ([9]; 30 min): 44.5%
- Mouse Plasma Compound 001 (%) ([9]; 60 min): 60.1%
- Mouse Plasma Compound 001 (%) ([9]; 120 min): 64.3%
- Mouse Plasma Compound 001 (%) ([9]; 240 min): 64.8%
- Condition 2 Conversion (%) ([5]; time 1 min): 0%
- Condition 2 Conversion (%) ([5]; time 5 min): 0%
- Condition 2 Conversion (%) ([5]; time 30 min): 0%
- Condition 2 Conversion (%) ([5]; time 1 h): 0%
- Condition 2 Conversion (%) ([5]; time 4 h): 0%
- Condition 2 Conversion (%) ([5]; time 24 h): 0%
- Condition 1 Conversion (%) ([2]; time 1 min): 0%
- Condition 1 Conversion (%) ([2]; time 5 min): 0%
- Condition 1 Conversion (%) ([2]; time 30 min): 0%
- Condition 1 Conversion (%) ([2]; time 1 h): 0%
- Condition 1 Conversion (%) ([2]; time 4 h): 0%
- Condition 1 Conversion (%) ([2]; time 24 h): 0%
- Human Plasma Prodrug (%) ([6]; 0 min): 100.0%
- Human Plasma Prodrug (%) ([6]; 15 min): >99%
- Human Plasma Prodrug (%) ([6]; 60 min): 97.5%
- Human Plasma Prodrug (%) ([6]; 240 min): 90.9%

SMILES: COc1ccc([C@@]23CC/C(=N\NC(=O)c4cccnc4)C[C@@H]2N(C)CC3)cc1OC [Compound 036, N-[[(3aS,7aS)-3a-(3,4-dimethoxyphenyl)-1-methyl-2,3,4,5,7,7a-hexahydroindol-6-ylidene]amino]pyridine-3-carboxamide]
- Notes (hydrolysis) ([1]; pH = 2.0, 37° C., 0 to 1 min): Hydrolyzed
- Conversion (%) ([1]; pH = 2.0, 37° C., 1 min): 100%
- Conversion (%) ([1]; pH = 2.0, 37° C., time 0): 0%
- Condition 1 Conversion (%) ([2]; time 1 min): 100%
- Condition 1 Conversion (%) ([2]; time 5 min): 100%
- Condition 1 Conversion (%) ([2]; time 30 min): 100%
- Condition 1 Conversion (%) ([2]; time 1 h): 100%
- Condition 1 Conversion (%) ([2]; time 4 h): 100%
- Condition 1 Conversion (%) ([2]; time 24 h): 100%
